Experimental data from US20220401483A1, “COMBINATION OF A T CELL THERAPY AND (S)-3-[4-(4-MORPHOLIN-4-YLMETHYL-BENZYLOXY)-L-OXO-L,3-DIHYDRO-ISOINDOL-2-YL]-PIPERIDINE-2,6-DIONE” (Juno Therapeutics, Inc., priority 2019, published 2022).

Columns and labels:
Assay type in all cases: cell-based, human
[1] = tested on: Raji or Granta-519 lymphoma cells; assay: Cytolytic assay of CAR T cells treated 3 days, Raji or Granta-519 target cells; conditions: 1 nM, 10 nM or 100 nM, 3 days treatment
Description: After 3 days of treatment with Compound A, anti-CD19 CAR T cells were co-cultured with Raji or Granta-519 lymphoma cells using a cytolytic assay. To assess cytolytic activity, the target cells were labeled with NucLight Red (NLR) to permit tracking by fluorescent microscopy. Killing activity was assessed by measuring the loss of viable target cells over 200 hours, as determined by loss of fluorescent signal over time by kinetic fluorescence microscopy (using the INCUCYTE® Live Cell Analysis System, Essen Bioscience). Tumor cell numbers were normalized to time zero and measured over time (mean±SEM).
FIG. 7B depicts the tumor cell numbers of anti-CD19 CAR T cells treated with 1 nM, 10 nM, or 100 nM Compound A as compared with vehicle control (no Compound A) and tumor only.

anti-CD19 CAR T cells [2] = assay: Intracellular cytokine staining of acutely stimulated anti-CD19 CAR T cells; conditions: 3 days, 30 μg/mL agonistic anti-CAR antibody
Description: Effector and proliferative activity of anti-CD19 CAR T cells were assessed following incubation in the presence of absence of Compound A. Anti-CD19 CAR+ T cell compositions were generated as described in Example 1.
The anti-CD19 CAR T cells were stimulated with agonistic antibody against the CAR (30 μg/mL; WO2018/023100) while being treated with vehicle control (ctrl) or Compound A. Intracellular cytokines were measured using intracellular cytokine staining (ICS) after 3 days of treatment. FIG. 7A show a heatmap of cytokine expression as depicted based on log 2-fold change in mean fluorescence intensity (MFI) of cytokines relative to vehicle control in culture.

RL CD19+ tumor cells = assay: Acute cytolytic activity, anti-CD19 CAR T cells co-cultured with RL CD19+ tumor cells
Description: Anti-CD19 CAR T cells were co-cultured with RL CD19+ tumor cells at an effector to target (E:T) ratio of 1:1, in the presence of (S)-3-[4-(4-morpholin-4-ylmethyl-benzyloxy)-1-oxo-1,3-dihydro-isoindol-2-yl]-piperidine-2,6-dione (Compound A) (0.001 μM, 0.01 μM or 0.1 μM). Acute cytolytic activity was measured by tumor cell number over time. […] Co-culture of CAR T cells with RL resistant tumor cells in the presence of Compound A improved cytolytic CAR T cell function, […]

anti-CD19 CAR T cells [3] = assay: Proliferation and cell cycle of acutely stimulated anti-CD19 CAR T cells
Description: Cell cycle and proliferation of anti-CD19 CAR T cells was measured by labeling cells using the Click-iT™ EdU Cell Proliferation Kit after which the prepared cells were analyzed by flow cytometry for DNA content. Numbers of anti-CD19 CAR T cells were measured over time using an IncuCyte® Live-Cell Analysis System.
As shown, treatment with Compound A reduced the proliferation of anti-CD19 CAR T cells. To further assess the effects on reducing proliferation, cell cycle was measured by flow cytometry by analyzing DNA content. FIG. 7D depicts plots of the percentage of cells in G1 phase (mean±SEM from data pooled from 3 donors and 2 independent experiments).

Ikaros = assay: Intracellular Ikaros expression in stimulated anti-CD19 CAR-expressing T cells (flow cytometry MFI)
Description: T cell compositions containing anti-CD19 CAR-expressing T cells were generated from leukapheresis samples from three healthy human adult donors by a process including immunoaffinity-based selection of T cells (including CD4+ and CD8+ cells) from the samples, resulting in two compositions, enriched for CD8+ and CD4+ cells, respectively. The cells were incubated in the presence of (S)-3-[4-(4-morpholin-4-ylmethyl-benzyloxy)-1-oxo-1,3-dihydro-isoindol-2-yl]-piperidine-2,6-dione (Compound A) or 3-(5-amino-2-methyl-4-oxo-4H-quinazolin-3-yl)-piperidine-2,6-dione (Compound B), and expression of the transcription factors Ikaros and Aiolos was assessed. Cells of the enriched CD4+ and CD8+ compositions were separately activated with anti-CD3/anti-CD28 beads and subjected to lentiviral transduction with a vector encoding an anti-CD19 CAR. The anti-CD19 CAR contained an anti-CD19 scFv derived from a murine antibody (variable region derived from FMC63), an immunoglobulin-derived spacer, a transmembrane domain derived from CD28, a costimulatory region derived from 4-1BB, and a CD3-zeta intracellular signaling domain. The expression construct in the viral vector further contained sequences encoding a truncated receptor, which served as a surrogate marker for CAR expression, which was separated from the CAR sequence by a T2A ribosome skip sequence. Transduced populations then were separately incubated in the presence of stimulating reagents for cell expansion. Expanded CD8+ and CD4+ cells were formulated and cryopreserved separately and stored. The cryopreserved CD4+ and CD8+ anti-CD19 CAR-expressing cells from each donor were thawed, and combined at approximately a 1:1 CAR+CD4+:CD8+ ratio prior to use. Approximately 2.5×10^5 cells of the generated CAR+ T cell composition were stimulated overnight with 1 μg/ml of a CAR-specific anti-idiotypic antibody in the presence of 3-(5-amino-2-methyl-4-oxo-4H-quinazolin-3-yl)-piperidine-2,6-dione (Compound B) or (S)-3-[4-(4-morpholin-4-ylmethyl-benzyloxy)-1-oxo-1,3-dihydro-isoindol-2-yl]-piperidine-2,6-dione (Compound A) at concentrations ranging from 10 to 10000 nM or a vehicle control overnight at 37° C., 5% C02. Following overnight incubation, anti-CD19 CAR-expressing T cells were stained with antibodies and analyzed by flow cytometry to assess intracellular levels of Ikaros and Aiolos in CD4+ CAR+ or CD8+ CAR+ cells, as measured by median fluorescence intensity (MFI). Median fluorescence intensity (MFI) values for Ikaros and Aiolos were normalized and calculated as a percentage relative to vehicle control. […] The EC50 for reducing Aiolos and Ikaros expression was calculated as determined from the concentration of the inhibitor that reduced Aiolos or Ikaros MFI to 50% of its maximal MFI in the absence of the inhibitor.

O=C1CC[C@H](N2Cc3c(OCc4ccc(CN5CCOCC5)cc4)cccc3C2=O)C(=O)N1 [Compound A, (S)-3-[4-(4-morpholin-4-ylmethyl-benzyloxy)-1-oxo-1,3-dihydro-isoindol-2-yl]-piperidine-2,6-dione]
cytolytic activity against target cells [1]: improved | effector cytokine production (ICS, MFI vs vehicle) (anti-CD19 CAR T cells [2]): potentiates | sensitivity of RL tumor cell line to monotherapy (RL CD19+ tumor cells; 0.01 μM or 0.1 μM): sensitive | cytolytic CAR T cell function against RL tumor cells (RL CD19+ tumor cells; co-culture, E:T 1:1, 0.001, 0.01 or 0.1 μM): improved | proliferation of anti-CD19 CAR T cells (anti-CD19 CAR T cells [3]; 1 nM, 10 nM or 100 nM): reduced | percentage of cells in the G1 phase (anti-CD19 CAR T cells [3]; 3 days treatment): statistically significant increase | intracellular Ikaros expression (Ikaros; 10 to 10000 nM, overnight): concentration dependent decrease | EC50 (Ikaros; overnight incubation, 1 μg/ml anti-idiotypic antibody, average of donors (range, 95% confidence interval)): 4 nM
